From PubChem BioAssay AID651980 (The Scripps Research Institute Molecular Screening Center, 2013)
Active and inactive are the calls of the source. The rule behind the calls is not given here.

Columns and labels:
Experiment in all cases: PubChem AID 651980
[1] = test system: ABHD6; details: HEK293T in situ, ABPP-SILAC LC-MS/MS, NHU5 probe, at 5 µM, stronger effect = lower value
[2] = test system: CTSA; details: HEK293T in situ, ABPP-SILAC LC-MS/MS, NHU5 probe, at 5 µM, stronger effect = lower value
[3] = test system: PNPLA6; details: HEK293T in situ, ABPP-SILAC LC-MS/MS, NHU5 probe, at 5 µM, stronger effect = lower value
[4] = test system: LYPLAL1; details: HEK293T in situ, ABPP-SILAC LC-MS/MS, NHU5 probe, at 5 µM, stronger effect = lower value
[5] = test system: ABHD10; details: HEK293T in situ, ABPP-SILAC LC-MS/MS, NHU5 probe, at 5 µM, stronger effect = lower value
[6] = molecular target: Acyl-protein thioesterase 2 (Homo sapiens) (UniProt O95372); details: HEK293T in situ, ABPP-SILAC LC-MS/MS, NHU5 probe; LYPLA2; at 5 µM; stronger effect = lower value
[7] = test system: TPP2; details: HEK293T in situ, ABPP-SILAC LC-MS/MS, NHU5 probe, at 5 µM, stronger effect = lower value
[8] = test system: MGLL; details: HEK293T in situ, ABPP-SILAC LC-MS/MS, NHU5 probe, at 5 µM, stronger effect = lower value
[9] = test system: PREP; details: HEK293T in situ, ABPP-SILAC LC-MS/MS, NHU5 probe, at 5 µM, stronger effect = lower value
[10] = test system: AADACL1; details: HEK293T in situ, ABPP-SILAC LC-MS/MS, NHU5 probe, at 5 µM, stronger effect = lower value
[11] = test system: ESD; details: HEK293T in situ, ABPP-SILAC LC-MS/MS, NHU5 probe, at 5 µM, stronger effect = lower value
[12] = molecular target: Acyl-protein thioesterase 1 (Homo sapiens) (UniProt O75608); details: HEK293T in situ, ABPP-SILAC LC-MS/MS, NHU5 probe; LYPLA1; at 5 µM; stronger effect = lower value
[13] = molecular target: Dipeptidyl peptidase 9 (Homo sapiens) (UniProt Q86TI2); details: HEK293T in situ, ABPP-SILAC LC-MS/MS, NHU5 probe; DPP9; at 5 µM; stronger effect = lower value
[14] = molecular target: Protein phosphatase methylesterase 1 (Homo sapiens) (UniProt Q9Y570); details: HEK293T in situ, ABPP-SILAC LC-MS/MS, NHU5 probe; PPME1; at 5 µM; stronger effect = lower value
[15] = molecular target: Acylamino-acid-releasing enzyme (Homo sapiens) (UniProt P13798); details: HEK293T in situ, ABPP-SILAC LC-MS/MS, NHU5 probe; APEH; at 5 µM; stronger effect = lower value
[16] = molecular target: Fatty acid synthase (Homo sapiens) (UniProt P49327); details: HEK293T in situ, ABPP-SILAC LC-MS/MS, NHU5 probe; FASN; at 5 µM; stronger effect = lower value
[17] = test system: ABHD12; details: HEK293T in situ, ABPP-SILAC LC-MS/MS, NHU5 probe, at 5 µM, stronger effect = lower value
[18] = test system: PLA2G4A; details: HEK293T in situ, ABPP-SILAC LC-MS/MS, NHU5 probe, at 5 µM, stronger effect = lower value

Chain of Protein phosphatase methylesterase 1 (Homo sapiens) (Q9Y570 whole entry, looked up): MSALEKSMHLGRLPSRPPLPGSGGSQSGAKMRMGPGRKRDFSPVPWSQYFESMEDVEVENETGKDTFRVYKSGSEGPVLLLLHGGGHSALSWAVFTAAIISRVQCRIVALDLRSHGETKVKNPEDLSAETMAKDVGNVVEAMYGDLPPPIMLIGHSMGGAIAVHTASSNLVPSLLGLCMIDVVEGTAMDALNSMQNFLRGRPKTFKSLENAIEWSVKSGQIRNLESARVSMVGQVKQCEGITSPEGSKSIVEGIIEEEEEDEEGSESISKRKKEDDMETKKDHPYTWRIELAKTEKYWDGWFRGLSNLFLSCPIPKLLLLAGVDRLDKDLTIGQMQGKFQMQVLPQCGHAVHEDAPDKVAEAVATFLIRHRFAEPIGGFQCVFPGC
Chain of Dipeptidyl peptidase 9 (Homo sapiens) (Q86TI2 whole entry, looked up): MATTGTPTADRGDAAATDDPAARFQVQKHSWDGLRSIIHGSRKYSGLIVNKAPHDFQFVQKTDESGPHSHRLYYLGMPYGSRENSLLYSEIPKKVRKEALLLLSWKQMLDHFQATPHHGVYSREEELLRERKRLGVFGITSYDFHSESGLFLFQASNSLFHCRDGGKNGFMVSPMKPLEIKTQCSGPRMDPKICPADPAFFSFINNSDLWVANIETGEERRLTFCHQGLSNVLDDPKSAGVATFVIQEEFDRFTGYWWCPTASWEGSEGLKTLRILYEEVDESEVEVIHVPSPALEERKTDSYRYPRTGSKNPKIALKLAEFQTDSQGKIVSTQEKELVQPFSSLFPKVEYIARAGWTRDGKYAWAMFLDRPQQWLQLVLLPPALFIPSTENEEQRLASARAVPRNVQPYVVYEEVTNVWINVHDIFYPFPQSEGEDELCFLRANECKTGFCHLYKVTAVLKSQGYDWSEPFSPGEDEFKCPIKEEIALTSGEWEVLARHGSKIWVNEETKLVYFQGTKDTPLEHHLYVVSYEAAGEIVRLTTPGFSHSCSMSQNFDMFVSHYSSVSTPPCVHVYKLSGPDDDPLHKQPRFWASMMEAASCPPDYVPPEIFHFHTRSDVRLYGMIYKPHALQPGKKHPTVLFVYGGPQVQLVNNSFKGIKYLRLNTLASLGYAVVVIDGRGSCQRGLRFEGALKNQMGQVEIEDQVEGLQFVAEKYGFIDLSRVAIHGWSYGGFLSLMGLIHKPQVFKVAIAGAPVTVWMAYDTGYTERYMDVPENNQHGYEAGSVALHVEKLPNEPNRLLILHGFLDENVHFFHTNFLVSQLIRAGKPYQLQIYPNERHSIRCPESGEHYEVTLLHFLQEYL
Chain of Acyl-protein thioesterase 1 (Homo sapiens) (O75608 whole entry, looked up): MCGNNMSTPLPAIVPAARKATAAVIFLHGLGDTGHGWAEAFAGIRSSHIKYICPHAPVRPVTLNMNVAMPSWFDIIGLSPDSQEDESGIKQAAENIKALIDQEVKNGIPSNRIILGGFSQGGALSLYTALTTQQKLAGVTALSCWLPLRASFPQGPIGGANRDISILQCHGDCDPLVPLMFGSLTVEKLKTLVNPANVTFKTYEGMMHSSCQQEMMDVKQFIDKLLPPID
Chain of Fatty acid synthase (Homo sapiens) (P49327 whole entry, looked up): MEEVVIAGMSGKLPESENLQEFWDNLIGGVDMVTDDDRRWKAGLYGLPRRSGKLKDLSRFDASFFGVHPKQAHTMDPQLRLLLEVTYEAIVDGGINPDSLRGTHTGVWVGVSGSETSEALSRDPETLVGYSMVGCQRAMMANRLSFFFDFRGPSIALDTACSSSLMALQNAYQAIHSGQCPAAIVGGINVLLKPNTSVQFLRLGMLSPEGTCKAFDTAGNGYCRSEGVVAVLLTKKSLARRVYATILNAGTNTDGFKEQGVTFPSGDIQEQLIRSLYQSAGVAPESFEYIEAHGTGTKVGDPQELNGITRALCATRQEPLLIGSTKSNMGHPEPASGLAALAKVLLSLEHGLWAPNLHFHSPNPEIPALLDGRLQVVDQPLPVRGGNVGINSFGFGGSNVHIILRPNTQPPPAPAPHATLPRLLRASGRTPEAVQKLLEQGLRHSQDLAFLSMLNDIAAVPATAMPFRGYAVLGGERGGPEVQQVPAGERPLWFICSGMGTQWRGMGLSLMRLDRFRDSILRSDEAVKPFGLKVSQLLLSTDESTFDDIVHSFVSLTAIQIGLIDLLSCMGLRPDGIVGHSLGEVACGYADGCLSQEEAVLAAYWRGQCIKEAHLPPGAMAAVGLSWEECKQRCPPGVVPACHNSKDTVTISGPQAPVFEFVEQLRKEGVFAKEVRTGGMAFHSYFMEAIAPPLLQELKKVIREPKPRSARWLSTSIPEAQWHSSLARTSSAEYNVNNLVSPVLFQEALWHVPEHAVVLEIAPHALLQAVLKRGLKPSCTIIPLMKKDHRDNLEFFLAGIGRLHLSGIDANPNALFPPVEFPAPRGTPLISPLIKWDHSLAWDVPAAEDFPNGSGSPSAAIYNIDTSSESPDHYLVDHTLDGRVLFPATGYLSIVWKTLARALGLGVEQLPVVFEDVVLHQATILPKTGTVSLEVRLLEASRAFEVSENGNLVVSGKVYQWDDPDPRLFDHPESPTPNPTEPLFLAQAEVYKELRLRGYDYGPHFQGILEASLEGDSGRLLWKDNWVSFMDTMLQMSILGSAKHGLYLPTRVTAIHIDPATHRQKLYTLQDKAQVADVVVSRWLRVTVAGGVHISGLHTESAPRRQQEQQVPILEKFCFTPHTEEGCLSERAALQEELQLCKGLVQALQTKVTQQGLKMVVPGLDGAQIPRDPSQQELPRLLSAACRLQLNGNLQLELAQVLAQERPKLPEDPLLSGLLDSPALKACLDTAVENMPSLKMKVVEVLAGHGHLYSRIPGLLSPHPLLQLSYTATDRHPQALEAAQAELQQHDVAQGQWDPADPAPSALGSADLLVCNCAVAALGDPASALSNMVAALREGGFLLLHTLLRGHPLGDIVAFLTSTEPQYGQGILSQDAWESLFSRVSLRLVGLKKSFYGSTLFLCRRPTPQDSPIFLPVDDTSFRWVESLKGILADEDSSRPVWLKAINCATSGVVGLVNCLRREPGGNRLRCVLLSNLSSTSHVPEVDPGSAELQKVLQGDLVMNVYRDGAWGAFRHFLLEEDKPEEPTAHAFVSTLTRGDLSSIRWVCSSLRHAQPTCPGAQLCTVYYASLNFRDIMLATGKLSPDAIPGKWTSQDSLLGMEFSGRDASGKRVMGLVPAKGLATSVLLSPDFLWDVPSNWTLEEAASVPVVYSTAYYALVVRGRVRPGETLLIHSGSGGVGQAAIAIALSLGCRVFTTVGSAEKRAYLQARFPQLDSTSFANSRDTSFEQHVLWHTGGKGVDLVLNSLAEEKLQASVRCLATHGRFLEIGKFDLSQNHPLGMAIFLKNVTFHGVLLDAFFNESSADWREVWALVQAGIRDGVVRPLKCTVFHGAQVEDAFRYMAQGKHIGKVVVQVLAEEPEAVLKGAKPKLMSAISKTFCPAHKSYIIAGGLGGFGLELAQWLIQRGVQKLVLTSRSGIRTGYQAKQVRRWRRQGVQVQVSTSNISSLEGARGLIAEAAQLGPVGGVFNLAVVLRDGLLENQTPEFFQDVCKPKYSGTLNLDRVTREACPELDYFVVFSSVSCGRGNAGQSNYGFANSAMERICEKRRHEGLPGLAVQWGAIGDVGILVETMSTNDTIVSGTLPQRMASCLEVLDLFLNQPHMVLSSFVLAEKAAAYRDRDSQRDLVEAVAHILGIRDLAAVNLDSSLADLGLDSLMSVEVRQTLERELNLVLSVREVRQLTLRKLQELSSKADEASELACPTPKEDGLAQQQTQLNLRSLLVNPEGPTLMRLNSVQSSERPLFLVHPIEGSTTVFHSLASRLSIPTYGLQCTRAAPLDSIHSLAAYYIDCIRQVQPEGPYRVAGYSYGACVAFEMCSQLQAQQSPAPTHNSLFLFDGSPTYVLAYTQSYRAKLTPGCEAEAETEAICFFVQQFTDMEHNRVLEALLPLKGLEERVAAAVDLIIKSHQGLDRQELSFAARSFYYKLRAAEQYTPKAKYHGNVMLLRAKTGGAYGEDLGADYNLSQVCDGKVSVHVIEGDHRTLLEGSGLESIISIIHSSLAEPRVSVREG
Chain of Acylamino-acid-releasing enzyme (Homo sapiens) (P13798 whole entry, looked up): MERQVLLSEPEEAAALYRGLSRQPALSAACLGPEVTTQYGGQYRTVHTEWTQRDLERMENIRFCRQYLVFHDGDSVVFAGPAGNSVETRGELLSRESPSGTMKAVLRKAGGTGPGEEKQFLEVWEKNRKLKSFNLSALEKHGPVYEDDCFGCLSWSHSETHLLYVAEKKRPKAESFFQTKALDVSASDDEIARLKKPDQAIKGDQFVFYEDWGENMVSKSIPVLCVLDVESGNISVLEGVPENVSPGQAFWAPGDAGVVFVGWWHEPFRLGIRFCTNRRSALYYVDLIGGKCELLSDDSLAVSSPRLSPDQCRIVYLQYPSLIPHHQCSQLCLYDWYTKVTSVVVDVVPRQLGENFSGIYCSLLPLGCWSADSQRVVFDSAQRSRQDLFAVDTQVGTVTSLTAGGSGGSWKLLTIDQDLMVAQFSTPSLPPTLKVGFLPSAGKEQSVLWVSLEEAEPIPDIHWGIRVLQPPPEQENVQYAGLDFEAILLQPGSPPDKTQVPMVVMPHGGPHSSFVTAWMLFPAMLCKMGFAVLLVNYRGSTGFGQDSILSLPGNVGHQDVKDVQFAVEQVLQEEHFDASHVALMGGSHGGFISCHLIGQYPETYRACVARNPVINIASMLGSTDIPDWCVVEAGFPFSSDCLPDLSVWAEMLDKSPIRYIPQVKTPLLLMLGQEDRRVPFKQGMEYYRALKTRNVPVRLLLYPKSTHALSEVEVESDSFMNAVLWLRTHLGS
Chain of Acyl-protein thioesterase 2 (Homo sapiens) (O95372 whole entry, looked up): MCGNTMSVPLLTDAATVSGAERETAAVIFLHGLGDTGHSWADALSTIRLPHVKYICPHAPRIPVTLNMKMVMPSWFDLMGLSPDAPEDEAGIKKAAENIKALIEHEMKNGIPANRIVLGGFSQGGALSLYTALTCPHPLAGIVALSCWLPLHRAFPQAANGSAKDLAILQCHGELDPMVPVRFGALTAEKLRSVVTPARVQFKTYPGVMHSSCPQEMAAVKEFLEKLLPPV

remaining activity ratio (inhibitor/DMSO) [1]: 1.37 (inactive)
remaining activity ratio (inhibitor/DMSO) [2]: 1.29 (inactive)
remaining activity ratio (inhibitor/DMSO) [3]: 1.27 (inactive)
remaining activity ratio (inhibitor/DMSO) [4]: 1.23 (inactive)
remaining activity ratio (inhibitor/DMSO) [5]: 1.21 (inactive)
remaining activity ratio (inhibitor/DMSO) [6]: 0.25
remaining activity ratio (inhibitor/DMSO) [7]: 1.1 (inactive)
remaining activity ratio (inhibitor/DMSO) [8]: 0.94 (inactive)
remaining activity ratio (inhibitor/DMSO) [9]: 1.05 (inactive)
remaining activity ratio (inhibitor/DMSO) [10]: 1.14 (inactive)
remaining activity ratio (inhibitor/DMSO) [11]: 1.17 (inactive)
remaining activity ratio (inhibitor/DMSO) [12]: 1.12 (inactive)
remaining activity ratio (inhibitor/DMSO) [13]: 1.17 (inactive)
remaining activity ratio (inhibitor/DMSO) [14]: 1.13 (inactive)
remaining activity ratio (inhibitor/DMSO) [15]: 1.23 (inactive)
remaining activity ratio (inhibitor/DMSO) [16]: 1.15 (inactive)
remaining activity ratio (inhibitor/DMSO) [17]: 1.24 (inactive)
remaining activity ratio (inhibitor/DMSO) [18]: 1.44 (inactive)
SMILES: COc1ccc(N2CCN(C(=O)c3cc4c(s3)-c3ccccc3S(=O)(=O)C4)CC2)cc1
